The text below walks through data of US20080293699A1, “Inhibitors of thapsigargin-induced cell death” (priority 2007, published 2008).

Read-outs that look alike come from different tables or passages of the source.

The assay concerns CSM14.1 cells. Briefly: Primary HTS assay: ATP content (ATPlite) of undifferentiated CSM14.1 cells challenged with thapsigargin. It is filed as cell-based, rat. Particulars: thapsigargin-induced death of undifferentiated CSM14.1, ATP content. From the text: For convenience, and because transient reductions in temperature that might be associated with large screening experiments could restore Large T activity, we elected to develop our HTS using undifferentiated CSM14.1 cells, with the plan to then confirm hits using differentiated cells. For monitoring cell death, we used a commercially available bioluminescence reagent that determines intracellular ATP content, without requirement for complicated cell processing steps (ATPlite, Perkin Elmer). Thus, ATP was used as a surrogate indicator of cell survival for the primary assay.
Undifferentiated or differentiated CSM14.1 cells were plated at a density of 3,000 cells/well in 40 μL DMEM medium (containing 10% serum, 1 mM L-glutamine, and antibiotics) in 96 well flat-bottom microtiter plates composed of polystrene (Greiner Bio One, polystyrene, white wall, flat bottom, lumitrac, high binding). After overnight incubation at 32° C., DMSO (0.5% v/v) or 100 uM Salubrinal (Sal) in DMSO was delivered. After 2 hrs, 5 uL of a stock solution of 150 uM TG in DMEM medium containing 0.75% (v:v) DMSO to achieve a final concentration of approximately 15 uM. After culturing for 24 hrs, cellular ATP content was measured by addition of 20 uL per well of ATPlite solution (Perkin-Elmer), and then the plates were incubated for three minutes at room temperature, before reading with a Microplate Luminometer (BD Pharmingen Moonlight model 3096).
To determine the reproducibility of the ATP content assay, we prepared a 96-well plate in which half the wells received TG plus DMSO (assay minimum) and half received TG plus Salubrinal (assay maximum), then performed the ATP content studies using undifferentiated CSM14.1 cells (FIG. 6). CSM14.1 cells were cultured overnight at 3,000 cells per well in 96-well flat-bottom plates, then either DMSO (0.5% final concentration) or Salubrinal (100 μM) in DMSO (0.5% final concentration) was added to half the well (48 each). After two hrs, TG was added to all wells (15 μM final). Cells were cultured for 24 hrs, then the ATP content was measured using the ATPlite luminogenic assay. We then adapted this assay to the high-throughput environment, using a Biomex™ FX liquid handler for automated dispensing of assay components into microwells of 96-well plates. First, undifferentiated CSM14.1 cells were grown at 32° C. in DMEM medium supplemented with 10% fetal bovine serum (FBS), 1% penicillin/streptomycin, and 1% L-glutamine in 150 mm×25 mm polystyrene culture dishes to produce approximately 3×10^6 cells. Second, CSM14.1 cells were recovered from cultures by trypsinization when at 80-90% confluence, and suspended at 7.5×10^4 cells/mL in DMEM medium containing 2% FBS, 1 mM L-glutamine, and antibiotics 100 IU penicillin 100 μg/ml streptomycin. Third, the cell suspension was then delivered at 40 μL per well of 96-well plastic microtiter plates (Greiner Bio One, polystyrene, white wall, flat bottom, lumitrac, high binding, cat #655074), and the plates were cultured overnight at 32° C. in a humidified atmosphere in 95% air: 5% CO2. Fourth, using the automated liquid handler, 5 μL of test compounds in 10% DMSO were added to wells in columns 2-11 of the 96-well plates (leaving columns 1 and 12 intact) to achieve an approximate final concentration of 15 μg/mL test compound and a final concentration of 1% DMSO. Fifth, 5 μL of 1 mM Salubrinal in a solution of 10% DMSO:90% DMEM was added to wells of column 1/rows A-D of each plate, while 5 μL of 10% DMSO:90% DMEM solution was added to wells corresponding to column 1/rows E-H and to all wells in column 12. Sixth, the plates were returned to culture.
(ATP-based viability assays read luminescence as a measure of living cells.)

[1] abbreviates: one value given, read-out: IC50.
[2] abbreviates: first assay, read-out: IC50 (μM), first value.
Setting [3] is: second assay (value in bold), read-out: IC50 (μM), value from a second assay.
[4] abbreviates: Rattus norvegicus, one value given, read-out: IC50.

For orientation: IC50 means the point on the concentration scale where inhibition reaches its midpoint. Turning to `CCN(CC)c1ccc(C2=Nc3ccccc3NC3=C2C(=O)CC(c2ccc(Cl)cc2)C3)cc1` (racemic) [MLS-0292126], the IC50 under setting [1] was 16.5 µM.
On the same count and under the same terms, the value for `COc1ccc(C2CC(=O)C3=C(C2)Nc2ccccc2NC3c2cccc(O)c2)cc1OC` (stereo not shown) [Compound 3192-5300] was 53.5 ± 3.45 µM.
Same read-out and setting: the value for `CCOc1ccc(C2CC(=O)C3=C(C2)Nc2ccccc2NC3c2cc(F)ccc2Cl)cc1OC` (stereo not shown) [Compound 5991-0620] was above 200 µM.
As for `COc1ccccc1CN1CCN(C(=O)c2cc(OC)c(OC)c(OC)c2)CC1` [Compound 5397316], the IC50 under setting [1] was above 200 µM.
With `CCn1c2ccccc2c2cc(CN3CCN(C(=O)c4cc(OC)c(OC)c(OC)c4)CC3)ccc21` [Compound 5397372], the IC50 by setting is: under setting [2], 18.9 ± 0.568 µM; under setting [3], 13.5 ± 2.02 µM.
For `O=C(C(c1ccccc1)c1ccccc1)N1CCN(Cc2ccccc2[N+](=O)[O-])CC1` [Compound 5948365], the IC50 under setting [1] stood at 19.5 µM.
Consider `CCn1c2ccccc2c2cc(CN3CCN(C(=O)c4cccs4)CC3)ccc21` [Compound 5951613], for which the IC50 reads like this: under setting [2], 16.74 ± 0.158 µM; under setting [3], 12.7 ± 1.11 µM.
`COc1ccc(CN2CCN(C(=O)c3ccc(-c4ccccc4)cc3)CC2)c(OC)c1` [Compound 5955734]: the IC50 was 23.8 µM under setting [2] and 16.5 ± 1.47 µM under setting [3].
Take `CSc1ccc(C2Nc3ccccc3NC3=C2C(=O)CC(c2ccccc2)C3)cc1` (stereo not shown) [Compound 5963958]: the IC50 under setting [2] was determined as 18.6 ± 9.14 µM, the concentration for half-maximal inhibition (IC50) under setting [1] was determined as 12.5 ± 0.179 µM and the IC50 under setting [3] is 12.5 ± 0.179 µM.
As to `COc1ccc(C2CC(=O)C3=C(C2)Nc2ccccc2NC3c2cccc(Cl)c2)cc1` (stereo not shown) [Compound 5969327, 11-(3-chlorophenyl)-3-(4-methoxyphenyl)-2,3,4,5,10,11-hexahydro-1H-dibenzo[b,e][1,4]diazepin-1-one], the 50% inhibitory concentration (IC50) under setting [4] was 21.7 ± 1.07 µM.
Regarding `CCN(CC)c1ccc(C2Nc3ccccc3NC3=C2C(=O)CC(c2ccc(OC)cc2)C3)cc1` (stereo not shown) [Compound 5969590], the IC50 under setting [1] came to 11.4 ± 1.49 µM.
Consider `COc1ccc(Br)cc1CN1CCN(C(=O)c2ccc(-c3ccccc3)cc2)CC1` [Compound 5990041], for which the concentration for half-maximal inhibition (IC50) under setting [2] worked out at 12.8 ± 0.318 µM and the IC50 under setting [3] worked out at 14.2 ± 1.2 µM.
Regarding `CCOc1ccc(CN2CCN(C(=O)c3ccc(-c4ccccc4)cc3)CC2)cc1` [Compound 5990076, 1-(4-biphenylylcarbonyl)-4-(4-ethoxybenzyl)piperazine], under setting [4], the IC50 was above 200 µM.
For `COc1ccc(OC)c(CN2CCN(C(=O)c3ccc(-c4ccccc4)cc3)CC2)c1` [Compound 5990137], the IC50 reads like this: under setting [2], 17.5 ± 0.675 µM; under setting [3], 13.9 ± 1.06 µM.
For the compound `COc1ccccc1CN1CCN(C(=O)c2ccc(-c3ccccc3)cc2)CC1` [Compound 5996087, 1-(4-biphenylylcarbonyl)-4-(2-methoxybenzyl)piperazine], the IC50 under setting [4] fell in the range of 25 to 50 µM.
In the case of `CCn1c2ccccc2c2cc(CN3CCN(C(=O)c4ccc(OC)c(OC)c4)CC3)ccc21` [Compound 6033352], the IC50 runs as follows: under setting [2], 13.4 ± 0.248 µM; under setting [3], 13.8 ± 0.548 µM.
On to `CCn1c2ccccc2c2cc(CN3CCN(C(=O)c4ccc([N+](=O)[O-])cc4)CC3)ccc21` [Compound 6034674], for which the IC50 is, setting by setting: under setting [2], 15 ± 0.495 µM; under setting [3], 11.5 ± 0.501 µM.
For `COc1cccc(CN2CCN(C(=O)c3ccc(-c4ccccc4)cc3)CC2)c1OC` [Compound 6035098] the same measures were 19.8 ± 0.721 µM and 16.6 ± 2.03 µM.
As for `COc1ccc(C2CC(=O)C3=C(C2)Nc2ccccc2NC3c2ccccc2OC(C)C)cc1` (stereo not shown) [Compound 6043556, 11-(2-isopropoxyphenyl)-3-(4-methoxyphenyl)-2,3,4,5,10,11-hexahydro-1H-dibenzo[b,e][1,4]diazepin-1-one], the concentration for half-maximal inhibition (IC50) under setting [4] was 24 ± 2.31 µM.
Take `COc1ccc(C2CC(=O)C3=C(C2)Nc2ccccc2NC3c2c(F)cccc2Cl)cc1` (stereo not shown) [Compound 6044487]: under setting [1], the IC50 stood at 15.3 ± 1.51 µM.
As for `CCOc1cccc(C2Nc3ccccc3NC3=C2C(=O)CC(c2ccc(OC)cc2)C3)c1` (stereo not shown) [Compound 6044673], the IC50 reads like this: under setting [2], 20.2 ± 0.781 µM; under setting [1], 21.2 ± 0.362 µM; under setting [3], 21.2 ± 0.362 µM.
Regarding `COc1ccc(C2CC(=O)C3=C(C2)Nc2ccccc2NC3c2ccc(O)cc2)cc1` (stereo not shown) [Compound 6045744, 11-(4-hydroxyphenyl)-3-(4-methoxyphenyl)-2,3,4,5,10,11-hexahydro-1H-dibenzo[b,e][1,4]diazepin-1-one], the IC50 under setting [4] is above 200 µM.
In the case of `Cc1ccc(C2Nc3ccccc3NC3=C2C(=O)CC(c2ccc(Cl)cc2)C3)cc1` (stereo not shown) [Compound 6047795], the IC50 under setting [1] stood at 11 ± 1.04 µM.
As for `CC(C)Oc1ccccc1C1Nc2ccccc2NC2=C1C(=O)CC(c1ccc(Cl)cc1)C2` (stereo not shown) [Compound 6047998], the IC50 under setting [1] is 8.09 ± 0.832 µM.
On the same count and under the same terms, the result for `CCOc1cc(C2Nc3ccccc3NC3=C2C(=O)CC(c2ccc(OC)cc2)C3)cc(Br)c1O` (stereo not shown) [Compound 6048306] reads 18.2 ± 1.93 µM.
For the compound `COc1ccc(C2Nc3ccccc3NC3=C2C(=O)CC(c2ccc(Cl)cc2)C3)cc1` (stereo not shown) [Compound 6049070, 3-(4-chlorophenyl)-11-(4-methoxyphenyl)-2,3,4,5,10,11-hexahydro-1H-dibenzo[b,e][1,4]diazepin-1-one], the IC50 under setting [4] was found to be 12.5 ± 0.13 µM.
For `COc1ccc(C2CC(=O)C3=C(C2)Nc2ccccc2NC3c2ccc(C(C)C)cc2)cc1` (stereo not shown) [Compound 6049861], the IC50 under setting [1] turned out to be 10.3 ± 1.28 µM.
For the compound `O=C1CC(c2ccccc2)CC2=C1C(c1ccccc1Cl)Nc1ccccc1N2` (stereo not shown) [Compound 6065973], the IC50 under setting [1] was above 200 µM.
Same read-out and setting: the result for `CCCCOc1ccccc1C1Nc2ccccc2NC2=C1C(=O)CC(c1ccccc1)C2` (stereo not shown) [Compound 6066511] reads 19.2 ± 2.16 µM; that for `COc1ccc(C2CC(=O)C3=C(C2)Nc2ccccc2NC3c2ccc(NC(C)=O)cc2)cc1` (stereo not shown) [Compound 6067345], above 100 µM.
As for `COc1ccc(C2CC(=O)C3=C(C2)Nc2ccccc2NC3c2ccccc2Cl)cc1OC` (stereo not shown) [Compound 6076307, 11-(2-chlorophenyl)-3-(3,4-dimethoxyphenyl)-2,3,4,5,10,11-hexahydro-1H-dibenzo[b,e][1,4]diazepin-1-one], the IC50 under setting [4] came to 41.7 ± 0.916 µM.
With `COc1ccc(C2CC(=O)C3=C(C2)Nc2ccccc2NC3c2ccc(F)c(F)c2)cc1` (stereo not shown) [Compound 6079090, 11-(3,4-difluorophenyl)-3-(4-methoxyphenyl)-2,3,4,5,10,11-hexahydro-1H-dibenzo[b,e][1,4]diazepin-1-one], the IC50 under setting [4] stood at 21.7 ± 0.247 µM.
For the compound `COc1ccc(C2CC(=O)C3=C(C2)Nc2ccccc2NC3c2c(Cl)cccc2Cl)cc1` (stereo not shown) [Compound 6079349], under setting [1], the IC50 worked out at 31.5 ± 2.84 µM.
On to `COc1ccc(C2CC(=O)C3=C(C2)Nc2ccccc2NC3c2ccc(C)cc2)cc1OC` (stereo not shown) [Compound 6105705, 3-(3,4-dimethoxyphenyl)-11-(4-methylphenyl)-2,3,4,5,10,11-hexahydro-1H-dibenzo[b,e][1,4]diazepin-1-one], for which the IC50 under setting [4] turned out to be 25 ± 0.169 µM.
In the case of `O=C1CC(c2ccccc2)CC2=C1C(c1c(F)cccc1Cl)Nc1ccccc1N2` (stereo not shown) [Compound 6237973], the IC50 reads like this: under setting [2], 22.6 ± 0.68 µM; under setting [1], 19.49 ± 0.169 µM; under setting [3], 19.49 ± 0.169 µM.
For the compound `COc1ccc(C2CC(=O)C3=C(C2)Nc2ccccc2NC3c2cccc(C(F)(F)F)c2)cc1OC` (stereo not shown) [Compound 6238475], the half-inhibitory concentration (IC50) under setting [2] is 18.81 ± 0.157 µM, the IC50 under setting [1] is 12.5 ± 0.17 µM and the IC50 under setting [3] was found to be 12.5 ± 0.17 µM.
For `COc1ccc(C2CC(=O)C3=C(C2)Nc2ccccc2NC3c2cccc(Br)c2)cc1OC` (stereo not shown) [Compound 6239538], the IC50 runs as follows: under setting [2], 15.5 ± 0.243 µM; under setting [1], 12.5 ± 0.177 µM; under setting [3], 12.5 ± 0.177 µM.
